Article PMC5033074 (Nature chemical biology, 2016)
Where two headings read alike, the source gives them in different places. Values belong to the molecule of their own block, whether it stands above or below them.

Columns and labels:
[1] = system: Pol II CTD Ser2 phosphorylation; settings: cited from earlier work
HAP1 cells = test: HAP1 WT vs CDK12 C1039S proliferation assay; assay type: cell-based, human; settings: 72 hours
Jurkat cells = test: Annexin V / propidium iodide flow cytometry; assay type: cell-based, human
[2] = system: pSer2 Pol II occupancy in Jurkat cells; test: pSer2 Pol II ChIP-seq; assay type: cell-based, human
CDK12- cyclin K complex = CDK12- cyclin K complex (Homo sapiens, UniProt Q9NYV4); test: mass spectrometry of protein-inhibitor complex; assay type: binding; settings: 17 µM complex, 25 µM compound, overnight at 4°C
[3] = system: steady-state mRNA levels in Jurkat cells; test: gene expression analysis; assay type: cell-based, human; settings: for effect on steady-state mRNA levels: 500 nM, 6h
CDK12-cyclin K complexes = CDK12-cyclin K complexes (Homo sapiens, UniProt Q9NYV4); test: target-engagement assay; assay type: cell-based; settings: competition with lysate-introduced bioTHZ1
CDK12-cyclin K complexes, sequence (Q9NYV4 whole entry): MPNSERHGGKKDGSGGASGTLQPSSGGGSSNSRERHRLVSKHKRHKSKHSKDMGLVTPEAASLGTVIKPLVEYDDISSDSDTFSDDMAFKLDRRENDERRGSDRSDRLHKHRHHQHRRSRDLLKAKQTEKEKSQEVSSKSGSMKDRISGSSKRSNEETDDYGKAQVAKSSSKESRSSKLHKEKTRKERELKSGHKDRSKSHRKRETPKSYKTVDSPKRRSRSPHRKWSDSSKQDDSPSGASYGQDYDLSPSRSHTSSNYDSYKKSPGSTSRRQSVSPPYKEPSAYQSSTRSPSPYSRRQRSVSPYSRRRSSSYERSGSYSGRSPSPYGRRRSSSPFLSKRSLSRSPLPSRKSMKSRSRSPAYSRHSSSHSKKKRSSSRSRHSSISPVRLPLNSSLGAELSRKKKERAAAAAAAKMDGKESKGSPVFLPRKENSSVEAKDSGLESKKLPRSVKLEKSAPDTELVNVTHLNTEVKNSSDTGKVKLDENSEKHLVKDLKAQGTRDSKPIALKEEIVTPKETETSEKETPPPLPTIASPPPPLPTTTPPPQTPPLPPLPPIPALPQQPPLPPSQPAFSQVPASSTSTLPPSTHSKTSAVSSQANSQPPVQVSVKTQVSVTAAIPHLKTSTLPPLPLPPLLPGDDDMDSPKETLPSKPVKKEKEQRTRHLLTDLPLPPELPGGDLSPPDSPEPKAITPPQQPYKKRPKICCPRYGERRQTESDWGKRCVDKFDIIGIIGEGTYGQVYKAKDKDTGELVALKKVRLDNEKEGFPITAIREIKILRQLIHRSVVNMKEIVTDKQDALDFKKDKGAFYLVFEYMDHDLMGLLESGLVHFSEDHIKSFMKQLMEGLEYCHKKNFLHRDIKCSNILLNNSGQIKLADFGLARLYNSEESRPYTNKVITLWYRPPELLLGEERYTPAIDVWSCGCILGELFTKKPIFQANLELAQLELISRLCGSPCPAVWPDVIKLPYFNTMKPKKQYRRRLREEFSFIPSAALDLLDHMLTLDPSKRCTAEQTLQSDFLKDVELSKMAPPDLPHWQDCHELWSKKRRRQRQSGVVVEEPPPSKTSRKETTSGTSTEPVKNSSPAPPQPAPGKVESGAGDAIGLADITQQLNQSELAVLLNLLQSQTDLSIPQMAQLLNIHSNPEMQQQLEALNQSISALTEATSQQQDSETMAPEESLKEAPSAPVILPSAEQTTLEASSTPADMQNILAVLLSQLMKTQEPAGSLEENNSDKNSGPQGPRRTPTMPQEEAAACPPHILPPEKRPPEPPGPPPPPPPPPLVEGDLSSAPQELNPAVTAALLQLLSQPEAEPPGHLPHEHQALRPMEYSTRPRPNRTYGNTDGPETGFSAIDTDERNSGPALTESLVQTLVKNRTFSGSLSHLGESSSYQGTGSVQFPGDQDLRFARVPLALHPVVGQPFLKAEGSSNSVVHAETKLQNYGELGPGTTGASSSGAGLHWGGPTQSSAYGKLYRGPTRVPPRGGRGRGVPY
CDK12-cyclin K complexes, sequence (O75909 whole entry partner): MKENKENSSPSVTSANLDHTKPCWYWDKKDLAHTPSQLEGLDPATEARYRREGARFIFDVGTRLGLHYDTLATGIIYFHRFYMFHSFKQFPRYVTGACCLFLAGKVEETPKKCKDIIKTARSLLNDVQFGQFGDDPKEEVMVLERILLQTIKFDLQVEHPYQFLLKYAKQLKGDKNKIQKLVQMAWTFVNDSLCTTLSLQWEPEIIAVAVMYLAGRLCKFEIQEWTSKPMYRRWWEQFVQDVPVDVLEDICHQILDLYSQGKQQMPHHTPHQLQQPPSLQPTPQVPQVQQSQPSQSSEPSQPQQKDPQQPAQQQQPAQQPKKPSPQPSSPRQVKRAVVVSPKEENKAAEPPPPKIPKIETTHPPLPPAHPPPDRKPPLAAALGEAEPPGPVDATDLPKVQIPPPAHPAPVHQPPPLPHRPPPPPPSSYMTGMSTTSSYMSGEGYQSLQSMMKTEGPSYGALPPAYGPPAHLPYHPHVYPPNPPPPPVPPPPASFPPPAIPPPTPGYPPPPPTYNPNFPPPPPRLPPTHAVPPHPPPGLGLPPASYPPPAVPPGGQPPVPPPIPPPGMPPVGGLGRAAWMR

[4] = system: Jurkat T-cell acute lymphoblastic leukemia cells; test: Jurkat proliferation assay; assay type: cell-based, human; settings: for antiproliferative activity in Jurkat cells: 72 hrs, CellTiter Glo
ERK1 = ERK1 (Homo sapiens, UniProt P27361); test: kinase assay, control kinase; assay type: biochemical
CDK13 = CDK13 (Homo sapiens, UniProt Q14004); test: Ambit in vitro binding profiling
[5] = system: Pol II CTD Ser2 phosphorylation; test: Pol II CTD phosphorylation immunoblot; assay type: cell-based, human; settings: Jurkat cells, 6 hrs
other 211 kinases = test: KiNativ intracellular kinase profiling; settings: ATP-desthiobiotin probe
CDK12-cyclin K = CDK12-cyclin K (Homo sapiens, UniProt Q9NYV4); assay type: biochemical; settings: relative to THZ531
CDK12-cyclin K, sequence (Q9NYV4 696-1082 limits assumed): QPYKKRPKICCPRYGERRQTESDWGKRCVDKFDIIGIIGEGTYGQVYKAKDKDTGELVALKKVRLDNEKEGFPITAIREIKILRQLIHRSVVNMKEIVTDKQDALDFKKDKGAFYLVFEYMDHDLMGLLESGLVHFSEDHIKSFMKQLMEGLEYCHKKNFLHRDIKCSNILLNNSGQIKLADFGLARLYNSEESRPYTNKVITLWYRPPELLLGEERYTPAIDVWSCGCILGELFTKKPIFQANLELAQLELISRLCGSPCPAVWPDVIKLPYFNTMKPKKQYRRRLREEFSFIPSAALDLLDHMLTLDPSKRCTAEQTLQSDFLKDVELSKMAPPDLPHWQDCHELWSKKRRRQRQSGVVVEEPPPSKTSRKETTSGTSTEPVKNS
CDK12-cyclin K, sequence (O75909 1-267 partner limits assumed): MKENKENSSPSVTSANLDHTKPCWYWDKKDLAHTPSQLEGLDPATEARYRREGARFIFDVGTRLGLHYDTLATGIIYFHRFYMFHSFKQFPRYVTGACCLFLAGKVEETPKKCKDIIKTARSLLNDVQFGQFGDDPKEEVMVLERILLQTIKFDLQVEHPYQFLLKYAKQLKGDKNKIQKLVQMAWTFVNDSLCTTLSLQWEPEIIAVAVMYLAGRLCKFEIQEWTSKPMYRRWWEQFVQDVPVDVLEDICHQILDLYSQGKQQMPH

CDK13-cyclin K = CDK13-cyclin K (Homo sapiens, UniProt Q14004); test: radiometric in vitro kinase assay; assay type: biochemical; settings: relative to THZ531
CDK13-cyclin K, sequence (Q14004 694-1039 limits assumed): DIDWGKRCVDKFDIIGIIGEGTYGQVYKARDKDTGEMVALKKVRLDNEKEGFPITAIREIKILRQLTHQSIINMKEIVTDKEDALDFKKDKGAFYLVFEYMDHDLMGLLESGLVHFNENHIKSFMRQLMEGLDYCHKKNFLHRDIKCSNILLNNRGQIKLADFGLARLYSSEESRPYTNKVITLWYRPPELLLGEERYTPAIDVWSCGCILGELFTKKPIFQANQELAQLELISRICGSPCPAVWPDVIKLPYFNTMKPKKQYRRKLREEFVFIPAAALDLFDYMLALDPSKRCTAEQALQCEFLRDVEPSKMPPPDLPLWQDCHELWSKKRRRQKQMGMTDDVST
CDK13-cyclin K, sequence (O75909 1-267 partner limits assumed): as the sequence (O75909 1-267 partner limits assumed) above

CDK9-cyclin T1 = CDK9-cyclin T1 (Homo sapiens, UniProt P50750); test: radiometric in vitro kinase assay; assay type: biochemical; settings: compared with THZ531
CDK9-cyclin T1, sequence (P50750 whole entry): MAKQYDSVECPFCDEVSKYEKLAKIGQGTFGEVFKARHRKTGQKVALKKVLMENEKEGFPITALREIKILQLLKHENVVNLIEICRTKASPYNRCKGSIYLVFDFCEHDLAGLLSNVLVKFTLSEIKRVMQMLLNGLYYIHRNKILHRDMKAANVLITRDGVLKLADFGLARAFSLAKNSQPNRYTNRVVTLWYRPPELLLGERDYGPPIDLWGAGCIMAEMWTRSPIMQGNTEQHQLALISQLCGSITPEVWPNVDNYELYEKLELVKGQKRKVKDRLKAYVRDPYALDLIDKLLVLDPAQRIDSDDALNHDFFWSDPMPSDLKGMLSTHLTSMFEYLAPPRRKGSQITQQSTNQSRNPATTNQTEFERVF
CDK9-cyclin T1, sequence (O60563 1-272 partner limits assumed): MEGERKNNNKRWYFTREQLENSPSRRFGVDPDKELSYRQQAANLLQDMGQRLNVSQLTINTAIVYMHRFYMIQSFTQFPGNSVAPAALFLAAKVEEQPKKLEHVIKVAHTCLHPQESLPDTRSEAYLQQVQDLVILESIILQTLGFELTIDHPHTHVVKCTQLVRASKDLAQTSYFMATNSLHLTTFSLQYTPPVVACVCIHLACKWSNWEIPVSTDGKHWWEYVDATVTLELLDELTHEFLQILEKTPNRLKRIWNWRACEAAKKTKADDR

CDK7-cyclin H-MAT1 = CDK7-cyclin H-MAT1 (Homo sapiens, UniProt P50613); assay type: biochemical; settings: compared with THZ531
CDK7-cyclin H-MAT1, sequence (P50613 whole entry): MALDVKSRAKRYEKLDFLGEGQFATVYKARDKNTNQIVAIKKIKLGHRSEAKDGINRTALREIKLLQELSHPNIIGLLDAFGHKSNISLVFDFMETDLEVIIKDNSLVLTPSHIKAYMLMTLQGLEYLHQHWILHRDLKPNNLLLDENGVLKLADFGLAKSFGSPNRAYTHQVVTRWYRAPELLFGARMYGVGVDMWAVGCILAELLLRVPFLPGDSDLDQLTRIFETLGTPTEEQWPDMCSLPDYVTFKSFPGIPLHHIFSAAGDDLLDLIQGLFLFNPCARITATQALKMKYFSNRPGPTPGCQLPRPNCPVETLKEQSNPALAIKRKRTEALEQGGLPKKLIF
CDK7-cyclin H-MAT1, sequence (P51946 whole entry partner): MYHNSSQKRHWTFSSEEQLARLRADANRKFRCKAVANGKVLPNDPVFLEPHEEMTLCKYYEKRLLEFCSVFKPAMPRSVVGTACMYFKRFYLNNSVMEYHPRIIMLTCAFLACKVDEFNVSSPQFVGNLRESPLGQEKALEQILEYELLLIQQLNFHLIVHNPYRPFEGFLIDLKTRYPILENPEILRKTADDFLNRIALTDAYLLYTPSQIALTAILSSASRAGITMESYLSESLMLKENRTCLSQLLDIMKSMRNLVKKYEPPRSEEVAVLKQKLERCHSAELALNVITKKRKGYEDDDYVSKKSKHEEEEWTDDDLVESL
CDK7-cyclin H-MAT1, sequence (P51948 whole entry partner): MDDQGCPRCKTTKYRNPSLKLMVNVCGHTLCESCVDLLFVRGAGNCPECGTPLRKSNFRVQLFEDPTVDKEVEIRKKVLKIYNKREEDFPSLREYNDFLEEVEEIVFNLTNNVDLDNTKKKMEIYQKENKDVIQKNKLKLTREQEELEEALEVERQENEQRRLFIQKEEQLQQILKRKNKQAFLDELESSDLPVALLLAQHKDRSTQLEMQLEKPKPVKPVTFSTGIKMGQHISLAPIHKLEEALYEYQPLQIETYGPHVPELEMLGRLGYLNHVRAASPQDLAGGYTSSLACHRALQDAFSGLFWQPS

[6] = system: CDK12-cyclin K, CDK13-cyclin K and CDK7-cyclin H complexes; settings: 1 µM biotinylated probe
[7] = target: human CDK12 residues 715-1052 (human, UniProt Q9NYV4-1 715-1052, THZ531 covalently bound to Cys-1039; phosphorylated (site not stated)); test: crystal structure

Molecule: CN(C)C/C=C/C(=O)Nc1ccc(C(=O)Nc2cccc(Nc3ncc(Cl)c(-c4c[nH]c5ccccc45)n3)c2)cc1 [THZ1]
effect on Pol II CTD phosphorylation [1]: complete loss of Pol II CTD phosphorylation

Molecule: CN(C)C/C=C/C(=O)Nc1ccc(C(=O)N2CCC[C@@H](Nc3ncc(Cl)c(-c4c[nH]c5ccccc45)n3)C2)cc1 [THZ531, (R,E)-N-(4-(3-((5-chloro-4-(1H-indol-3-yl)pyrimidin-2-yl)amino)piperidine-1-carbonyl)phenyl)-4-(dimethylamino)but-2-enamide]
effect of CDK12 C1039S substitution on antiproliferative effect (HAP1 cells): partial restoration of cellular proliferation | percentage of apoptotic cells over DMSO control (Jurkat cells; 50 nM, time course of the experiment): no increase in the percentage of apoptotic cells | annexin V-positively stained cells (Jurkat cells; higher doses (above 50 nM), by 72 hrs): 30–40% | pSer2 ChIP-seq signal ([2]; 50 nM): did not appreciably change pSer2 ChIP-seq signal | pSer2 ChIP-seq signal ([2]; 500 nM): dramatic decrease in 3’ end –associated pSer2 ChIP-seq signal | covalent binding to CDK12-cyclin K (CDK12- cyclin K complex): Near complete covalent binding | expression of core DDR genes BRCA1, FANCF, ERCC4 ([3]; 50 nM): substantial loss of expression | binding to intracellular CDK12-cyclin K vs CDK7-cyclin H (CDK12-cyclin K complexes): binds intracellular CDK12-cyclin K complexes with higher affinity than CDK7-cyclin H complexes | IC50 ([4]; Homo sapiens, Jurkat, 72 h, read-out: IC50 Jurkat cell proliferation): 50 nM | inhibitory effect on ERK1 (ERK1): no appreciable inhibitory effect | Ambit profiling score of CDK13 (CDK13): among the top scoring kinases | effect on Pol II CTD phosphorylation [5]: selectively reduced Ser2 phosphorylation levels without appreciable effect on CTD pSer5/pSer7 levels | labeling of the other 211 kinases (not CDK12 and 13) (other 211 kinases): ≤ 55%

fold less active on CDK12 than THZ531 (CDK12-cyclin K): 50–100 fold | fold less active on CDK12 than THZ531 (CDK12-cyclin K; listed as reversible analog): more than 100 fold | fold less active on CDK13 than THZ531 (CDK13-cyclin K): 50–100 fold | fold less active on CDK13 than THZ531 (CDK13-cyclin K; listed as reversible analog): more than 100 fold | inhibition activity on CDK9 (CDK9-cyclin T1): similarly–low–inhibition activity | inhibition activity on CDK7 (CDK7-cyclin H-MAT1): similarly–low–inhibition activity
Molecule: CN(C)CCCC(=O)Nc1ccc(C(=O)N2CCC[C@@H](Nc3ncc(Cl)c(-c4c[nH]c5ccccc45)n3)C2)cc1 [THZ531R, (R)-N-(4-(3-((5-chloro-4-(1H-indol-3-yl)pyrimidin-2-yl)amino)piperidine-1-carbonyl)phenyl)-4-(dimethylamino)butanamide]
effect on steady-state mRNA levels [3]: decreased neither Ser2 phosphorylation nor steady-state mRNA levels | antiproliferative activity in Jurkat cells [4]: minimal antiproliferative activity | effect on Pol II CTD phosphorylation [5]: decreased neither Ser2 phosphorylation

inhibition activity on CDK9 (CDK9-cyclin T1): similarly–low–inhibition activity | inhibition activity on CDK7 (CDK7-cyclin H-MAT1): similarly–low–inhibition activity
Molecule: CN(C)C/C=C/C(=O)Nc1ccc(C(=O)N2CCC[C@H](Nc3ncc(Cl)c(-c4c[nH]c5ccccc45)n3)C2)cc1 [THZ532, (S,E)-N-(4-(3-((5-chloro-4-(1H-indol-3-yl)pyrimidin-2-yl)amino)piperidine-1-carbonyl)phenyl)-4-(dimethylamino)but-2-enamide]
effect on steady-state mRNA levels [3]: decreased neither Ser2 phosphorylation nor steady-state mRNA levels | antiproliferative activity in Jurkat cells [4]: minimal antiproliferative activity | effect on Pol II CTD phosphorylation [5]: decreased neither Ser2 phosphorylation

Molecule: CN(C/C=C/C(=O)Nc1ccc(C(=O)Nc2cccc(Nc3ncc(Cl)c(-c4c[nH]c5ccccc45)n3)c2)cc1)CCCNC(=O)NCCOCCOCCOCCNC(=O)CCCC[C@@H]1SC[C@@H]2NC(=O)N[C@@H]21 [bioTHZ1, reference compound]
complexes pulled down [6]: pulls down CDK7, CDK12, and 13 complexes

Molecule: CC1NC(=O)NC1CCCCCC(=O)NCCOCCOCCOCCNC(=O)CCN(C)C/C=C/C(=O)Nc1ccc(C(=O)N2CCC[C@@H](Nc3ncc(Cl)c(-c4c[nH]c5ccccc45)n3)C2)cc1 (stereo partly drawn) [bioTHZ531, N-((E)-20-((4-((R)-3-((5-chloro-4-(1H-indol-3-yl)pyrimidin-2-yl)amino)piperidine-1-carbonyl)phenyl)amino)-16-methyl-13,20-dioxo-3,6,9-trioxa-12,16-diazaicos-18-en-1-yl)-6-(5-methyl-2-oxoimidazolidin-4-yl)hexanamide]
complexes pulled down [6]: pulls down CDK12-cyclin K and CDK13-cyclin K complexes, but not CDK7-cyclin H complexes

binding result [7]: binds
B1: human cyclin K residues 11-267 (domain or fragment, UniProt O75909 11-267, looked up)
chain: SVTSANLDHTKPCWYWDKKDLAHTPSQLEGLDPATEARYRREGARFIFDVGTRLGLHYDTLATGIIYFHRFYMFHSFKQFPRYVTGACCLFLAGKVEETPKKCKDIIKTARSLLNDVQFGQFGDDPKEEVMVLERILLQTIKFDLQVEHPYQFLLKYAKQLKGDKNKIQKLVQMAWTFVNDSLCTTLSLQWEPEIIAVAVMYLAGRLCKFEIQEWTSKPMYRRWWEQFVQDVPVDVLEDICHQILDLYSQGKQQMPH
